# Measurements: ChEMBL document CHEMBL1136768, “Structure-activity relationships of (S,Z)-2-aminopurine methylenecyclopropane analogues of nucleosides. Variation of purine-6 substituents and activity against herpesviruses and hepatitis B virus” (J Med Chem, 2003)
# How the values were obtained:
# Human gammaherpesvirus 4 [1] = test: Concentration inhibiting the replication of EBV in H-1 cells by DNA hybridization assay; type: functional, organism-based; conditions: human gammaherpesvirus 4, H-1
# Human gammaherpesvirus 4 [2] = test: Concentration inhibiting the replication of EBV in Daudi cells; type: functional, organism-based; conditions: human gammaherpesvirus 4, Daudi
# Daudi [3] = test: Cytotoxicity in uninfected Daudi cells; type: functional; conditions: Homo sapiens
# Human alphaherpesvirus 2 = test: Concentration inhibiting the replication of HSV-2 in Vero cells.; type: functional, organism-based; conditions: Human alphaherpesvirus 2, Vero
# HFF [4] = test: Cytotoxicity against proliferating HFF cells; type: functional; conditions: Homo sapiens
# Hepatitis B virus = test: Inhibition of the replication of HBV in 2.2.15 cells, by DNA hybridization assay; type: functional, organism-based; conditions: HepG2 2.2.15
# Murid betaherpesvirus 1 = test: Concentration inhibiting the replication of MCMV in MEF cells; type: functional, organism-based; conditions: Murid betaherpesvirus 1, MEF
# Human alphaherpesvirus 1 [5] = test: Concentration inhibiting the replication of HSV-1 in BSC-1 cells determined by ELISA assay; type: functional, organism-based, herpes simplex virus; conditions: Human alphaherpesvirus 1, BSC-1
# Human alphaherpesvirus 1 [6] = test: Concentration inhibiting the replication of HSV-1 in Vero cells determined by plaque reduction assay; type: functional, organism-based, herpes simplex virus; conditions: Human alphaherpesvirus 1, Vero
# Human betaherpesvirus 5 = test: Concentration inhibiting the replication of HCMV in HFF cells by plaque reduction assay; conditions: Human betaherpesvirus 5, HFF
# MEF = test: Cytotoxicity in uninfected MEF cells; type: functional; conditions: Mus musculus
# CCRF-CEM = test: Cytotoxicity in uninfected CEM cells; type: functional; conditions: Homo sapiens
# Daudi [7] = test: Concentration inhibiting the replication of EBV in Daudi cells by DNA hybridization assay; type: functional, cell-based; conditions: Homo sapiens
# HFF [8] = test: Cytotoxicity was scored on uninfected HFF cells not affected by virus in the HCMV (AD169 strain) by neutral red uptake; type: functional
Compound,EC50 (Human gammaherpesvirus 4 [1]) [µM],EC50 (Human gammaherpesvirus 4 [2]) [µM],CC50 (Daudi [3]) [µM],EC50 (Human alphaherpesvirus 2) [µM],CC50 (HFF [4]) [µM],EC50 (Hepatitis B virus) [µM],EC50 (Murid betaherpesvirus 1) [µM],EC50 (Human alphaherpesvirus 1 [5]) [µM],EC50 (Human alphaherpesvirus 1 [6]) [µM],EC50 (Human betaherpesvirus 5) [µM],CC50 (MEF) [µM],CC50 (CCRF-CEM) [µM],EC50 (Daudi [7]) [µM],CC50 (HFF [8]) [µM]
CCCCCSc1nc(N)nc2c1ncn2/C=C1/C[C@@H]1CO,> 20,39.8,> 157,14,215,> 20,1.5,7,10,> 80,171,26,–,–
CCCCCOc1nc(N)nc2c1ncn2/C=C1/C[C@@H]1CO,7.3,23.4,> 165,4,41.9,7.3,1.45,7,3,> 66,224,87,–,–
CCCSc1nc(N)nc2c1ncn2/C=C1/C[C@@H]1CO,6.3,> 172,> 172,10,283,5.1,1.4,1,9,> 69,343,> 100,–,–
Nc1nc(NCC2CC2)c2ncn(/C=C3/C[C@@H]3CO)c2n1,> 20,0.56,> 175,> 50,–,> 20,1.7,2.5,25,10.8,279,> 100,7,–
Nc1nc(NCCO)c2ncn(/C=C3/C[C@@H]3CO)c2n1,> 20,> 181,> 181,> 50,–,> 20,11.9,> 100,> 50,> 60,> 362,> 100,–,–
Nc1nc(O)c2ncn(/C=C3/C[C@@H]3CO)c2n1,0.47,2.3,> 215,> 50,257,> 10,0.39,45,50,55,> 429,90,< 0.34,–
C=CCNc1nc(N)nc2c1ncn2/C=C1/C[C@@H]1CO,18.5,> 184,> 184,21,> 368,20,0.33,4,18,> 368,> 368,> 100,–,–
C#CCNc1nc(N)nc2c1ncn2/C=C1/C[C@@H]1CO,~2,> 185,> 185,50,306,> 10,0.37,6,20,> 74,> 370,> 100,–,–
COc1nc(N)nc2c1ncn2/C=C1/C[C@@H]1CO,0.44,3.8,146,16,15.8,> 10,0.24,20,23,10,351,98,1,–
C=CCOc1nc(N)nc2c1ncn2/C=C1/C[C@@H]1CO,1.1,> 183,> 183,8,220,11,0.29,1.5,7,2.3,> 366,26,–,–
Nc1nc(S)c2ncn(/C=C3/C[C@@H]3CO)c2n1,> 20,> 8,35.3,> 50,–,20,> 16,> 100,> 50,> 80,64,29,–,–
Nc1nc(OCC2CC2)c2ncn(/C=C3/C[C@@H]3CO)c2n1,12.6,29.2,112,12,112,12.6,0.35,7,8,8.4,278,41,–,–
Nc1nc(NCc2ccccc2)c2ncn(/C=C3/C[C@@H]3CO)c2n1,> 20,> 155,–,52,–,> 20,–,> 50,> 100,> 62,25,> 50,–,> 310
CC(C)Nc1nc(N)nc2c1ncn2/C=C1/C[C@@H]1CO,11,36.5,168,> 50,–,> 10,–,15,> 38,> 365,–,> 100,–,> 365
CCCOc1nc(N)nc2c1ncn2/C=C1/C[C@@H]1CO,1.5,> 182,> 182,10,69.4,4.1,< 0.11,1,4,8,363,32,–,–
Nc1nc(NC2CC2)c2ncn(/C=C3/C[C@@H]3CO)c2n1,0.66,6.2,176,22,213,> 10,0.15,20,15,12,367,70,0.85,–
Nc1nc(NC2CCCCC2)c2ncn(/C=C3/C[C@@H]3CO)c2n1,> 20,> 159,> 159,> 50,–,> 20,–,15,> 50,180,–,> 100,–,> 318
